Source: ChEMBL document CHEMBL4376898, “Enhanced Activity against Multidrug-Resistant Bacteria through Coapplication of an Analogue of Tachyplesin I and an Inhibitor of the QseC/B Signaling Pathway” (J Med Chem, 2020)
≈ marks a conversion by molar mass, not a printed value. Calls of active or inactive are those of the source. The rule behind the calls is not given here.

Columns and labels:
Lysobacter enzymogenes [1] = assay: Germicidal activity against Lysobacter enzymogenes YC36 at 5 to 10 pM; type: functional
Staphylococcus aureus [2] = assay: Antimicrobial activity against Staphylococcus aureus BAA 41 assessed as inhibition of visible growth incubated for 18 hrs; type: functional; settings: BAA 41, 18 h
Escherichia coli [3] = assay: Antimicrobial activity against Escherichia coli ATCC 25923 assessed as inhibition of visible growth incubated for 18 hrs; type: functional; settings: ATCC 25923, 18 h
L02 [4] = assay: Cytotoxicity in human L02 cells assessed as reduction in cell viability at >64 ug/ml incubated for 48 hrs by resazurin dye based assay; settings: l02, 48 h
Pseudomonas aeruginosa [5] = assay: Antimicrobial activity against Pseudomonas aeruginosa BAA 2108 assessed as inhibition of visible growth incubated for 18 hrs; type: functional; settings: BAA 2108, 18 h
Escherichia coli [6] = assay: Bactericidal activity against Escherichia coli K-12; type: functional
Staphylococcus aureus [7] = assay: Antimicrobial activity against Staphylococcus aureus BAA 44 assessed as inhibition of visible growth incubated for 18 hrs; type: functional; settings: BAA 44, 18 h
Lysobacter enzymogenes [8] = assay: Antimicrobial activity against Lysobacter enzymogenes YC36 assessed as inhibition of visible growth incubated for 18 hrs; type: functional
Enterococcus faecium [9] = assay: Bactericidal activity against Enterococcus […] ATCC 29212; type: functional
Enterobacter cloacae = assay: Antimicrobial activity against Enterobacter cloacae BAA 1143 assessed as inhibition of visible growth incubated for 18 hrs; type: functional; settings: BAA 1143, 18 h
[10] = Bactericidal activity against Lysobacter enzymogenes YC36; type: functional
[11] = Stability in human plasma assessed as parent compound remaining at […] measured after 2 hrs by HPLC analysis; type: ADME, cell-free; settings: read-out: Stability
L02 [12] = assay: Cytotoxicity in human L02 cells assessed as reduction in cell viability at <32 ug/ml incubated for 48 hrs by resazurin dye based assay; settings: l02, 48 h
Escherichia coli [13] = assay: Antimicrobial activity against Escherichia coli K-12 assessed as inhibition of visible growth incubated for 18 hrs; type: functional; settings: K-12, 18 h
Acinetobacter baumannii [14] = assay: Antimicrobial activity against Acinetobacter baumannii ATCC 19606 assessed as inhibition of visible growth incubated for 18 hrs; type: functional; settings: ATCC 19606 = CIP 70.34 = JCM 6841, 18 h
Erythrocyte [15] = assay: Toxicity in human erythrocytes assessed as induction of hemolysis incubated for 1 hr by visual absorption spectroscopy; type: cell-based
Pseudomonas aeruginosa [16] = assay: Bactericidal activity against Pseudomonas aeruginosa ATCC 27853; type: functional
[17] = Antimicrobial activity against Lysobacter enzymogenes YC36 assessed as inhibition of visible growth measured after 7th generation exposure to compound by continuous repeated transfer assay relative to before passage; type: functional
Escherichia coli [18] = assay: Antimicrobial activity against Escherichia coli BAA 2469 assessed as inhibition of visible growth incubated for 18 hrs; type: functional; settings: BAA 2469, 18 h
Staphylococcus aureus [19] = assay: Bactericidal activity against Staphylococcus aureus ATCC 29213; type: functional
Erythrocyte [20] = assay: Toxicity in human erythrocytes assessed as induction of hemolysis incubated for 1 hr by spectrometry; type: cell-based
Pseudomonas aeruginosa [21] = assay: Antimicrobial activity against Pseudomonas aeruginosa ATCC 27853 assessed as inhibition of visible growth incubated for 18 hrs; type: functional; settings: ATCC 27853, 18 h
Erythrocyte [22] = assay: Toxicity in human erythrocytes assessed as induction of hemolysis at <50 ug/ml incubated for 1 hr by spectrometry; type: cell-based
Staphylococcus aureus [23] = assay: Antimicrobial activity against Staphylococcus aureus ATCC 29213 assessed as inhibition of visible growth incubated for 18 hrs; type: functional; settings: ATCC 29213, 18 h
Enterococcus faecium [24] = assay: Antimicrobial activity against Enterococcus […] ATCC 29212 assessed as inhibition of visible growth incubated for 18 hrs; type: functional; settings: ATCC 29212, 18 h
Bacillus subtilis [25] = assay: Bactericidal activity against Bacillus subtilis 168; type: functional
Shigella flexneri = assay: Bactericidal activity against Shigella flexneri ATCC 29903; type: functional
Acinetobacter baumannii [26] = assay: Bactericidal activity against Acinetobacter baumannii ATCC 19606; type: functional; settings: ATCC 19606 = CIP 70.34 = JCM 6841
[27] = Stability in human plasma assessed as parent compound degradation at […] measured after 6 hrs by HPLC analysis; type: ADME, cell-free; settings: read-out: Drug degradation
Klebsiella pneumoniae [28] = assay: Antimicrobial activity against Klebsiella pneumoniae BAA 2470 assessed as inhibition of visible growth incubated for 18 hrs; type: functional; settings: BAA 2470, 18 h
Lysobacter enzymogenes [29] = assay: Bactericidal activity against Lysobacter enzymogenes YC36 at 4 ug/ml; type: functional
Bacillus subtilis [30] = assay: Antimicrobial activity against Bacillus subtilis 168 assessed as inhibition of visible growth incubated for 18 hrs; type: functional; settings: Bacillus subtilis, 168, 18 h
Klebsiella pneumoniae [31] = assay: Antimicrobial activity against Klebsiella pneumoniae BAA 1144 assessed as inhibition of visible growth incubated for 18 hrs; type: functional; settings: BAA 1144, 18 h
Lysobacter enzymogenes [32] = assay: Induction of bacterial cell membrane leakage in Lysobacter enzymogenes YC36 assessed as induction of serious depressions with leakage of intracellular contents surrounding bacteria by atomic force microscopy; type: functional, cell-based
Lysobacter enzymogenes [33] = assay: Bactericidal activity against Lysobacter enzymogenes YC36 at 2 ug/ml in presence of 5 pM QseC inhibitor LED209; type: functional
Lysobacter enzymogenes [34] = assay: Bactericidal activity against Lysobacter enzymogenes YC36 at 10 ug/ml; type: functional
Lysobacter enzymogenes [35] = assay: Induction of drug efflux pumps gene expression in Lysobacter enzymogenes YC36 assessed as increase in QseB expression at 2 ug/ml by genome-wide transcription profiling assay; type: functional
[36] = tested on: Pseudoalteromonas antarctica; assay: Bactericidal activity against Pseudoalteromonas antarctica at 2 ug/ml in presence of 5 pM QseC inhibitor LED209; type: functional, organism-based
Lysobacter enzymogenes [37] = assay: Bactericidal activity against Lysobacter enzymogenes YC36 with delta qseB mutant; type: functional
Lysobacter enzymogenes [38] = assay: Induction of drug efflux pumps gene expression in Lysobacter enzymogenes YC36 assessed as increase in czcB expression at 2 ug/ml by genome-wide transcription profiling assay; type: functional
Lysobacter enzymogenes [39] = assay: Induction of drug efflux pumps gene expression in Lysobacter enzymogenes YC36 assessed as increase in nodT expression at 2 ug/ml by genome-wide transcription profiling assay; type: functional
Lysobacter enzymogenes [40] = assay: Induction of drug efflux pumps gene expression in Lysobacter enzymogenes YC36 assessed as increase in ftsX expression at 2 ug/ml by genome-wide transcription profiling assay; type: functional
Lysobacter enzymogenes [41] = assay: Induction of drug efflux pumps gene expression in Lysobacter enzymogenes YC36 assessed as increase in yceL expression at 2 ug/ml by genome-wide transcription profiling assay; type: functional
Lysobacter enzymogenes [42] = assay: Bactericidal activity against Lysobacter enzymogenes YC36 with delta qseC mutant; type: functional
[43] = tested on: Stenotrophomonas maltophilia; assay: Bactericidal activity against Stenotrophomonas maltophilia at 2 ug/ml in presence of 5 pM QseC inhibitor LED209; type: functional, organism-based
Lysobacter enzymogenes [44] = assay: Induction of drug efflux pumps gene expression in Lysobacter enzymogenes YC36 with delta qseB mutant at 2 ug/ml by genome-wide transcription profiling assay; type: functional
Lysobacter enzymogenes [45] = assay: Induction of drug efflux pumps gene expression in Lysobacter enzymogenes YC36 assessed as increase in QseC expression at 2 ug/ml by genome-wide transcription profiling assay; type: functional
Lipid bilayer = assay: Induction of membrane lysis in LUVs composed of Escherichia coli lipid extract filled with 5-carboxyfluorescein incubated in dark for 20 mins by fluorescence based assay

O=S(=O)(Nc1ccccc1)c1ccc(NC(=S)Nc2ccccc2)cc1
Activity (Lysobacter enzymogenes [1]): inactive

CC[C@H](C)[C@@H]1NC(=O)CNC(=O)[C@H](CCCNC(=N)N)NC(=O)[C@H](Cc2ccc(O)cc2)NC(=O)[C@@H]2CSSC[C@H](NC1=O)C(=O)N[C@@H](Cc1ccc(O)cc1)C(=O)N[C@@H](CCCNC(=N)N)C(=O)N[C@@H](CCCNC(=N)N)C(=O)N[C@H](C(=O)N[C@@H](CCCNC(=N)N)C(N)=O)CSSC[C@H](NC(=O)[C@H](Cc1c[nH]c3ccccc13)NC(=O)[C@@H](N)CCCCN)C(=O)N[C@@H](Cc1ccccc1)C(=O)N[C@@H](CCCNC(=N)N)C(=O)N[C@@H](C(C)C)C(=O)N2
MIC (Staphylococcus aureus [2]): 4 µg/mL (≈ 1.77 µM) | MIC (Escherichia coli [3]): 2 to 4 µg/mL (≈ 0.883 to 1.77 µM) | Activity (L02 [4]): Toxic | MIC (Pseudomonas aeruginosa [5]): 8 µg/mL (≈ 3.53 µM) | MBC (Escherichia coli [6]): 16 to 64 µg/mL (≈ 7.07 to 28.3 µM) | MIC (Staphylococcus aureus [7]): 4 µg/mL (≈ 1.77 µM) | Activity (Lysobacter enzymogenes [8]): Dose-dependent effect | MBC (Enterococcus faecium [9]): 16 to 64 µg/mL (≈ 7.07 to 28.3 µM) | MIC (Enterobacter cloacae): 8 µg/mL (≈ 3.53 µM) | MBC [10]: 16 to 64 µg/mL (≈ 7.07 to 28.3 µM) | remaining at 2 h [11]: 20% | Activity (L02 [12]): Non-Toxic | MIC (Escherichia coli [13]): 4 µg/mL (≈ 1.77 µM) | MIC (Acinetobacter baumannii [14]): 8 to 16 µg/mL (≈ 3.53 to 7.07 µM) | MHC (Erythrocyte [15]): 0.25 µg/mL | MBC (Pseudomonas aeruginosa [16]): 16 to 64 µg/mL (≈ 7.07 to 28.3 µM) | fold change (FC) [17]: 2 | MIC (Escherichia coli [18]): 8 µg/mL (≈ 3.53 µM) | MBC (Staphylococcus aureus [19]): 16 to 64 µg/mL (≈ 7.07 to 28.3 µM) | Activity (Erythrocyte [20]): Dose-dependent effect | MIC (Pseudomonas aeruginosa [21]): 4 to 8 µg/mL (≈ 1.77 to 3.53 µM) | Activity (Erythrocyte [22]): Toxic | MIC (Staphylococcus aureus [23]): 8 µg/mL (≈ 3.53 µM) | MIC (Enterococcus faecium [24]): 8 µg/mL (≈ 3.53 µM) | MBC (Bacillus subtilis [25]): 16 to 64 µg/mL (≈ 7.07 to 28.3 µM) | MBC (Shigella flexneri): 16 to 64 µg/mL (≈ 7.07 to 28.3 µM) | MBC (Acinetobacter baumannii [26]): 16 to 64 µg/mL (≈ 7.07 to 28.3 µM) | metabolised at 6 h [27]: 100% | MIC (Klebsiella pneumoniae [28]): 16 µg/mL (≈ 7.07 µM) | Activity (Lysobacter enzymogenes [29]): inactive | MIC (Bacillus subtilis [30]): 4 µg/mL (≈ 1.77 µM) | MIC (Klebsiella pneumoniae [31]): 8 µg/mL (≈ 3.53 µM)

CC[C@H](C)[C@H]1NC(=O)CNC(=O)[C@@H](CCCNC(=N)N)NC(=O)[C@@H](Cc2ccc(O)cc2)NC(=O)[C@H]2CSSC[C@@H](NC1=O)C(=O)N[C@H](Cc1ccc(O)cc1)C(=O)N[C@H](CCCNC(=N)N)C(=O)N[C@H](CCCNC(=N)N)C(=O)N[C@@H](C(=O)N[C@H](CCCNC(=N)N)C(N)=O)CSSC[C@@H](NC(=O)[C@@H](Cc1c[nH]c3ccccc13)NC(=O)[C@H](N)CCCCN)C(=O)N[C@H](Cc1ccccc1)C(=O)N[C@H](CCCNC(=N)N)C(=O)N[C@H](C(C)C)C(=O)N2
Activity (Lysobacter enzymogenes [32]): Active | Activity (Lysobacter enzymogenes [33]): Active | Activity (Lysobacter enzymogenes [34]): inactive | Activity (Lysobacter enzymogenes [35]): Active | Activity [36]: Active | Activity (Lysobacter enzymogenes [37]): Active | Activity (Lysobacter enzymogenes [8]): Dose-dependent effect | Activity (Lysobacter enzymogenes [38]): Active | Activity (Lysobacter enzymogenes [39]): Active | Activity (Lysobacter enzymogenes [40]): Active | Activity (Lysobacter enzymogenes [41]): Active | Activity (Lysobacter enzymogenes [42]): Active | Activity (Lysobacter enzymogenes [29]): Active | Activity [43]: Active | Activity (Lysobacter enzymogenes [44]): inactive | Activity (Lysobacter enzymogenes [45]): Active | Activity (Lipid bilayer): Dose-dependent effect
